Earlier results on one compound are cited in US11804282B1, “Systems and methods for drug clustering” (nference, Inc., priority 2018, dated 2023).

For data set [1], the system named is distinct purified proteins. The following applies: proteome-wide screening data (FIG. 3 inset).
The target in data set [2] is VEGFR2 protein (Homo sapiens, UniProt P35968). The following applies: poly-protein screening (FIG. 4 inset).
VEGFR2 protein, sequence (P35968 20-1356): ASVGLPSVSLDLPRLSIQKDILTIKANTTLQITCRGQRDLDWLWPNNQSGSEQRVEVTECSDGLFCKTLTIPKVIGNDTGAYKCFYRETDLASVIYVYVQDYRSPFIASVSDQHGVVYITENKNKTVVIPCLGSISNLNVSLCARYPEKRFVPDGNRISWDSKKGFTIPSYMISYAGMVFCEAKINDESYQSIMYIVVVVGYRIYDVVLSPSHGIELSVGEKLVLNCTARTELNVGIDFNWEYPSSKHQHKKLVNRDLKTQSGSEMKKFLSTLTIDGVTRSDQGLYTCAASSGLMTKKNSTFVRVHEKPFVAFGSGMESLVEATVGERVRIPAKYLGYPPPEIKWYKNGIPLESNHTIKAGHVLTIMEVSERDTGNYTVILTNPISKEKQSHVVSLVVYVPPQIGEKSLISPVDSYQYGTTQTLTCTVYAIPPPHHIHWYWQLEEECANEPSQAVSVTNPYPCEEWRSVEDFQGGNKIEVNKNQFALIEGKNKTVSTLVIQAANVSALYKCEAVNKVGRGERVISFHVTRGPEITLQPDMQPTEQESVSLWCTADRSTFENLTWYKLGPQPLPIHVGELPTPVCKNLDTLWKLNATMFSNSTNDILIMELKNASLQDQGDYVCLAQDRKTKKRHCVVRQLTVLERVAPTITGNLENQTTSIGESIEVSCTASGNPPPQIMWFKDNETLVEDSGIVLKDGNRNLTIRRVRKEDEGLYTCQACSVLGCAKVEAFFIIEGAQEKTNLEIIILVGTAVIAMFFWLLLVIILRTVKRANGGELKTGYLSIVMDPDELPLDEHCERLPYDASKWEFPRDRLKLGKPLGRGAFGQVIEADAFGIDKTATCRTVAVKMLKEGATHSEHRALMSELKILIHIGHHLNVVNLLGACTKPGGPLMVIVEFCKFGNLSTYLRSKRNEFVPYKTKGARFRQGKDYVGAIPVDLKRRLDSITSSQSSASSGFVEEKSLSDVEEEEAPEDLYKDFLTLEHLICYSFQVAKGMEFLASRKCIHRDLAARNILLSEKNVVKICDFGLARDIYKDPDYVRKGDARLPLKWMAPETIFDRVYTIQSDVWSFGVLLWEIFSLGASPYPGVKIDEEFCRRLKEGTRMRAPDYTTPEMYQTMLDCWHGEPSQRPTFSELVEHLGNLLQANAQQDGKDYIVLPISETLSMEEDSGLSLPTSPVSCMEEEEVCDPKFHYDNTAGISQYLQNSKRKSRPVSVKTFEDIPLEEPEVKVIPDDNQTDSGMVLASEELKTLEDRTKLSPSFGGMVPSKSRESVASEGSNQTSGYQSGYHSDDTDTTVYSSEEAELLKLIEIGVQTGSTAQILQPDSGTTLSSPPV

Take `Cc1ccc(NC(=O)c2ccc(CN3CCN(C)CC3)cc2)cc1Nc1nccc(-c2cccnc2)n1` [imatinib]: in data set [1], the “number of distinct purified proteins bound” value is on record as “less than 50 distinct purified proteins”. Further, the “affinity to the VEGFR2 protein” value in data set [2] is listed as “almost no affinity”.
